Experimental findings from US11236105B2, “Bicyclic compounds and methods of use” (BioTheryX, Inc., priority 2017, dated 2022) are described below.

For this test, the system named is TNF-α. Kind of test: Cell-Based TNFα Inhibition Assay (PBMCs induced with LPS, Meso Scale). Conditions: PBMCs pretreated 1 hr, induced with LPS 100 ng/mL 18-24 hrs, supernatant TNF-α; for % TNFα Inhibition (0.1 μM) / inhibition at 0.1 µM: 0.1 μM compound; for % TNFα Inhibition (1 μM) / inhibition at 1 µM: 1 μM compound; for inhibition at 0.1 µM / inhibition at 1 µM: PBMC. On the procedure: Cell-Based TNFα Inhibition Assay
PBMCs induced with LPS (lipopolysaccharide): Frozen […] blood mononuclear cells (PBMCs) are purchased from AllCells. Cells are quick thawed, washed once with Roswell Park Memorial Institute medium (RPMI)-1640/10% FBS/1% Penicillin/1% Streptomycin and plated in 96 well plates at 200,000 cells per well. Cells are pretreated with DMSO only or the indicated compounds for 1 hr and then induced with […] for 18-24 hrs. The supernatant is analyzed for TNF-α using Meso Scale assay according to manufacturer's protocol. The negative control wells are treated with DMSO. Compound activity is measured as a percentage of the DMSO control.

In the case of `CS(=O)(=O)C[C@H](c1ccc2c(c1)OCO2)N1C(=O)c2scc(NC(=O)C(F)(F)F)c2C1=O` [Compound 22, N-(5-(1-(benzo[d][1,3]dioxol-5-yl)-2-(methylsulfonyl)ethyl)-4,6-dioxo-5,6-dihydro-4H-thieno[2,3-c]pyrrol-3-yl)-2,2,2-trifluoroacetamide], the “% TNFα Inhibition (0.1 μM)” value was “C (C = a single percent inhibition value ≤40% and >20%)”; the “% TNFα Inhibition (1 μM)” value is “C (C = a single percent inhibition value ≤40% and >20%)”.
In general, inhibition refers to the share of the control response that was lost under treatment. Turning to `CS(=O)(=O)C[C@H](c1ccc2c(c1)OCO2)N1C(=O)c2csc(NC(=O)C(F)(F)F)c2C1=O` [Compound 16, N-(5-(1-(benzo[d][1,3]dioxol-5-yl)-2-(methylsulfonyl)ethyl)-4,6-dioxo-5,6-dihydro-4H-thieno[3,4-c]pyrrol-1-yl)-2,2,2-trifluoro Acetamide], the inhibition at 0.1 µM is below 20% and the inhibition at 1 µM was below 20%.
As to `CS(=O)(=O)C[C@@H](c1ccc2c(c1)OCO2)N1C(=O)c2csc(NC(=O)C(F)(F)F)c2C1=O` [Compound 17, N-(5-(1-(benzo[d][1,3]dioxol-5-yl)-2-(methylsulfonyl)ethyl)-4,6-dioxo-5,6-dihydro-4H-thieno[3,4-c]pyrrol-1-yl)-2,2,2-trifluoro Acetamide], the inhibition at 0.1 µM is below 20% and the inhibition at 1 µM was below 20%.
Take `CCOc1cc([C@@H](CS(C)(=O)=O)N2C(=O)c3csc(NC(C)=O)c3C2=O)ccc1OC` [Compound 1, (S)—N-(5-(1-(3-ethoxy-4-methoxyphenyl)-2-(methylsulfonyl)ethyl)-4,6-dioxo-5,6-dihydro-4H-thieno[3,4-c]pyrrol-1-yl)acetamide]: the inhibition at 0.1 µM fell in the range of 40 to 60% and the inhibition at 1 µM was above 60%.
On the same counts, the results for `COCC(=O)Nc1csc2c1C(=O)N([C@@H](CS(C)(=O)=O)c1ccc3c(c1)OCO3)C2=O` [Compound 26, N-(5-(1-(benzo[d][1,3]dioxol-5-yl)-2-(methylsulfonyl)ethyl)-4,6-dioxo-5,6-dihydro-4H-thieno[2,3-c]pyrrol-3-yl)-2-methoxy acetamide] are below 20% and below 20%.
On the same counts, the results for `CCOc1cc([C@@H](CS(C)(=O)=O)N2C(=O)c3csc(NC(=O)C(F)(F)F)c3C2=O)ccc1OC` [Compound 7, (S)—N-(5-(1-(3-ethoxy-4-methoxyphenyl)-2-(methylsulfonyl)ethyl)-4,6-dioxo-5,6-dihydro-4H-thieno[3,4-c]pyrrol-1-yl)-2,2,2-trifluoroacetamide] are below 20% and below 20%.
On to `CCOc1cc([C@H](CS(=O)(=O)N(C)C)N2C(=O)c3csc(NC(C)=O)c3C2=O)ccc1OC` [Compound 29, (R)—N-(5-(2-(N,N-dimethylsulfamoyl)-1-(3-ethoxy-4-methoxyphenyl)ethyl)-4,6-dioxo-5,6-dihydro-4H-thieno[3,4-c]pyrrol-1-yl)acetamide], for which the inhibition at 0.1 µM was below 20% and the inhibition at 1 µM is below 20%.
On to `CC(=O)Nc1scc2c1C(=O)N([C@H](CS(C)(=O)=O)c1ccc3c(c1)OCO3)C2=O` [Compound 12, N-(5-(1-(benzo[d][1,3]dioxol-5-yl)-2-(methylsulfonyl)ethyl)-4,6-dioxo-5,6-dihydro-4H-thieno[3,4-c]pyrrol-1-yl)acetamide], for which the inhibition at 0.1 µM is below 20% and the inhibition at 1 µM is below 20%.
As for `CS(=O)(=O)C[C@H](c1ccc2c(c1)OCO2)N1C(=O)c2scc(NC(=O)C(F)(F)F)c2C1=O` [Compound 21, N-(5-(1-(benzo[d][1,3]dioxol-5-yl)-2-(methylsulfonyl)ethyl)-4,6-dioxo-5,6-dihydro-4H-thieno[2,3-c]pyrrol-3-yl)-2,2,2-trifluoroacetamide], the inhibition at 0.1 µM is below 20% and the inhibition at 1 µM was below 20%.
Regarding `CCOc1cc([C@@H](CS(C)(=O)=O)N2C(=O)c3csc(NC(=O)C(C)C(F)(F)F)c3C2=O)ccc1OC` (stereo partly drawn) [Compound 5, N-(5-((S)-1-(3-ethoxy-4-methoxyphenyl)-2-(methylsulfonyl)ethyl)-4,6-dioxo-5,6-dihydro-4H-thieno[3,4-c]pyrrol-1-yl)-3,3,3-trifluoro-2-methylpropanamide], the inhibition at 0.1 µM lay in the range of 20 to 40% and the inhibition at 1 µM is above 60%.
For the compound `CC(=O)Nc1scc2c1C(=O)N([C@H](CS(=O)(=O)N(C)C)c1ccc3c(c1)OCO3)C2=O` [Compound 27, N-(5-(1-(benzo[d][1,3]dioxol-5-yl)-2-(N,N-dimethylsulfamoyl)ethyl)-4,6-dioxo-5,6-dihydro-4H-thieno[3,4-c]pyrrol-1-yl)acetamide], the inhibition at 0.1 µM was below 20% and the inhibition at 1 µM was below 20%.
Regarding `CCOc1cc([C@@H](CS(C)(=O)=O)N2C(=O)c3csc(NC(=O)C(C)(C)C)c3C2=O)ccc1OC` [Compound 2, (S)—N-(5-(1-(3-ethoxy-4-methoxyphenyl)-2-(methylsulfonyl)ethyl)-4,6-dioxo-5,6-dihydro-4H-thieno[3,4-c]pyrrol-1-yl)pivalamide], the inhibition at 0.1 µM is below 20% and the inhibition at 1 µM is above 60%.
On the same counts, the results for `CCOc1cc([C@@H](CS(C)(=O)=O)N2C(=O)c3scc(NC(=O)COC)c3C2=O)ccc1OC` [Compound 10, (S)—N-(5-(1-(3-ethoxy-4-methoxyphenyl)-2-(methylsulfonyl)ethyl)-4,6-dioxo-5,6-dihydro-4H-thieno[2,3-c]pyrrol-3-yl)-2-methoxyacetamide] are below 20% and 40 to 60%.
On the same counts, the results for `CCOc1cc([C@@H](CS(C)(=O)=O)N2C(=O)c3scc(NC(=O)C4CC4)c3C2=O)ccc1OC` [Compound 11, (S)—N-(5-(1-(3-ethoxy-4-methoxyphenyl)-2-(methylsulfonyl)ethyl)-4,6-dioxo-5,6-dihydro-4H-thieno[2,3-c]pyrrol-3-yl)cyclopropanecarboxamide] are below 20% and 20 to 40%.
As for `CCOc1cc([C@@H](CS(C)(=O)=O)N2Cc3c(NC(=O)C(F)(F)F)csc3C2=O)ccc1OC` [Compound 30, (S)—N-(5-(1-(3-ethoxy-4-methoxyphenyl)-2-(methylsulfonyl)ethyl)-6-oxo-5,6-dihydro-4H-thieno[2,3-c]pyrrol-3-yl)-2,2,2-trifluoroacetamide], the inhibition at 0.1 µM was below 20% and the inhibition at 1 µM was below 20%.
Take `CCOc1cc([C@@H](CS(C)(=O)=O)N2Cc3c(NC(=O)C4CC4)csc3C2=O)ccc1OC` [Compound 32, (S)—N-(5-(1-(3-ethoxy-4-methoxyphenyl)-2-(methylsulfonyl)ethyl)-6-oxo-5,6-dihydro-4H-thieno[2,3-c]pyrrol-3-yl)cyclopropanecarboxamide]: the inhibition at 0.1 µM is below 20% and the inhibition at 1 µM was 20 to 40%.
Turning to `COCC(=O)Nc1csc2c1C(=O)N([C@H](CS(C)(=O)=O)c1ccc3c(c1)OCO3)C2=O` [Compound 25, N-(5-(1-(benzo[d][1,3]dioxol-5-yl)-2-(methylsulfonyl)ethyl)-4,6-dioxo-5,6-dihydro-4H-thieno[2,3-c]pyrrol-3-yl)-2-methoxy acetamide], the inhibition at 0.1 µM was below 20% and the inhibition at 1 µM is 20 to 40%.
On the same counts, the results for `CCOc1cc([C@@H](CS(C)(=O)=O)N2Cc3c(NC(=O)COC)csc3C2=O)ccc1OC` [Compound 31, (S)—N-(5-(1-(3-ethoxy-4-methoxyphenyl)-2-(methylsulfonyl)ethyl)-6-oxo-5,6-dihydro-4H-thieno[2,3-c]pyrrol-3-yl)-2-methoxyacetamide] are below 20% and below 20%.
Take `CCOc1cc([C@@H](CS(C)(=O)=O)N2C(=O)c3scc(NC(=O)C(F)(F)F)c3C2=O)ccc1OC` [Compound 9, (S)—N-(5-(1-(3-ethoxy-4-methoxyphenyl)-2-(methylsulfonyl)ethyl)-4,6-dioxo-5,6-dihydro-4H-thieno[2,3-c]pyrrol-3-yl)-2,2,2-trifluoroacetamide]: the inhibition at 0.1 µM is below 20% and the inhibition at 1 µM is 40 to 60%.
For `CS(=O)(=O)C[C@H](c1ccc2c(c1)OCO2)N1C(=O)c2csc(NC(=O)C3CC3)c2C1=O` [Compound 13, N-(5-(1-(benzo[d][1,3]dioxol-5-yl)-2-(methylsulfonyl)ethyl)-4,6-dioxo-5,6-dihydro-4H-thieno[3,4-c]pyrrol-1-yl)cyclopropane Carboxamide], the inhibition at 0.1 µM is below 20% and the inhibition at 1 µM was below 20%.
Turning to `CC(=O)Nc1csc2c1C(=O)N([C@H](CS(C)(=O)=O)c1ccc3c(c1)OCO3)C2=O` [Compound 24, N-(5-(1-(benzo[d][1,3]dioxol-5-yl)-2-(methylsulfonyl)ethyl)-4,6-dioxo-5,6-dihydro-4H-thieno[2,3-c]pyrrol-3-yl)acetamide], the “% TNFα Inhibition (0.1 μM)” value is “D (D = a single percent inhibition value <20%)” and the “% TNFα Inhibition (1 μM)” value was “D (D = a single percent inhibition value <20%)”.
With `CC(=O)Nc1scc2c1C(=O)N([C@H](CS(C)(=O)=O)c1ccc3c(c1)OCCO3)C2=O` [Compound 14, N-(5-(1-(2,3-dihydrobenzo[b][1,4]dioxin-6-yl)-2-(methylsulfonyl)ethyl)-4,6-dioxo-5,6-dihydro-4H-thieno[3,4-c]pyrrol-1-yl) acetamide], the inhibition at 0.1 µM was below 20% and the inhibition at 1 µM was below 20%.
